# Measurements reported in patent US11091501B2, “Heterocyclic compounds as RSV inhibitors” (Enanta Pharmaceuticals, Inc., priority 2017, dated 2021).
# pEC50: −log10 of the molar value.
# Tested on: Human RSV-A (“Long” strain)
# Test: RSV in vitro cytoprotection assay (CPE, ATPlite) in HEp-2 cells
# Format: cell-based
# Details: human respiratory syncytial virus, 96 h; HEp-2 cells, 4-day incubation, ATPlite readout; read-out: Human RSV-A (“Long” strain) EC50
# Description: RSV is a single stranded negative sense RNA virus that causes respiratory tract infections which can be dangerous to infants, the elderly, and immunosuppressed individuals. Currently there is no vaccine, and therapeutic options are both costly and of limited effectiveness. These approved treatments are Ribavirin, and Palivizumab/Synagis (a monoclonal antibody). RSV has two genotypes, A and B, which differ primarily in the structure of the virus' surface “G” attachment protein. Our current primary screen focuses on RSV-A and uses an in vitro cytoprotection assay where compounds are added in 2-fold dilutions to cells which are then subjected to fully replicative viral particles. Cell viability is measured several days later along with separate measurements of compound cytotoxicity. This report focuses on the results of our most recent screening of compounds.
# HEp-2 cells, (originally derived from tumors grown in irradiated-cortisonised weanling rats that had been injected with epidermoid carcinoma tissue from a person's larynx, but later found to be indistinguishable from HeLa cells by PCR DNA analysis), were used for the culturing of genotype A, “Long” strain RSV. Flasks were inoculated with RSV and viral stocks were collected once cytopathic effect (CPE) was greater than 90%. Viral stocks in 25% sucrose media were snap frozen using liquid nitrogen to increase viral stability. Viral stock titers were quantified by tissue culture infectious dose 50% (TCID50) using 8,000 cells per well and 3-fold viral dilutions across a 96-well plate, cultured for 4 days.
# Following extensive parameter testing, the final assay is run as follows: HEp-2 cells are seeded into the inner 60 wells of a 96-well plate at 8,000 cells per well in a volume of 50 μL using Growth Media (DMEM without phenol red, 1% L-Glut, 1% Penn/Strep, 1% nonessential amino acids, 10% FBS). 2-Fold serial dilutions of control and test compounds are added to the wells in duplicate in a total volume of 25 μL. Viral stock is then added to the wells in a volume of […] the total volume of each well to 100 μL. Each 96-well plate has a control column of 6 wells with cells and virus but no compound (negative control, max CPE), a column with cells but no compound or virus (positive control, minimum CPE), and a column with no cells or virus or compound (background plate/reagent control). The control wells with cells but no virus are given an additional 25 uL of growth media containing an equal quantity of sucrose as those wells receiving the viral stock in order to keep consistent in media and volume conditions. The outer wells of the plate are filled with 125 μL of growth media to act as a thermal and evaporative moat around the test wells. Following a 4-day incubation period, the plates are read using ATPlite (50 uL added per well), which quantifies the amount of ATP (a measure of cell health) present in each well. Assay plates are read using the Envision luminometer. In parallel, cytotoxicity is examined on an additional 96-well plate treated in an identical manner, but substituting the 25 μL of viral stock for 25 μL of growth media. […] EC50 ranges are as follows: A<0.01 μM; B 0.01-0.05 μM; C>0.05 μM.
row,SMILES,pEC50
1,O=C(Nc1ccc(C(=O)N2CCc3cc(-c4nc5ccc(F)cc5[nH]4)sc3-c3ccc(F)cc32)cc1)c1cccnc1N1CC2(CCOCC2)C1 [Example 39],7.30 to 8.00
2,Cc1cnc(N2CC3(CCOCC3)C2)c(C(=O)Nc2ccc(C(=O)N3CCc4c(sc(C(=O)Nc5cccc(C(F)(F)F)n5)c4F)-c4ccccc43)cc2)c1 [Example 232],< 7.30
3,Cc1ccc(C(=O)Nc2ccc(C(=O)N3CCc4cc(NC(=O)c5ncccc5F)sc4-c4ccccc43)cc2)c(N2CC3(CCOCC3)C2)n1 [Example 278],> 8.00
4,Cc1cnc(N2CC3(CCOCC3)C2)c(C(=O)Nc2ccc(C(=O)N3CCc4cc(C(=O)NC5CC6CCC5O6)sc4-c4ccc(F)cc43)cc2)c1 (stereo not drawn) [Example 123],> 8.00
5,Cc1ccc(C(=O)Nc2ccc(C(=O)N3CCc4cc(NC(=O)OC5CCC5)sc4-c4ccccc43)cc2)c(N2CC3(CCOCC3)C2)n1 [Example 298],7.30 to 8.00
6,Cc1cnc(N2CC3(CCOCC3)C2)c(C(=O)Nc2ccc(C(=O)N3CCc4c(sc(C(=O)Nc5ccccc5Cl)c4Cl)-c4ccccc43)cc2)c1 [Example 269],7.30 to 8.00
7,O=C(Nc1c(F)cccc1F)c1cc2c(s1)-c1ccc(F)cc1N(C(=O)c1ccc(NC(=O)c3cccnc3-c3c[nH]c4ccncc34)cc1)CC2 [Example 64],< 7.30
8,Cc1cnc(N2CC3(CCOCC3)C2)c(C(=O)Nc2ccc(C(=O)N3CCc4cc(-c5ncccn5)sc4-c4ccc(F)cc43)cc2)c1 [Example 191],7.30 to 8.00
9,O=C(Nc1c(F)cccc1F)c1nc2c(s1)-c1ccccc1N(C(=O)c1ccc(NC(=O)c3cccnc3N3CC4(CCOCC4)C3)cc1)CC2 [Example 104],> 8.00
10,CCOCCN(C)c1ncccc1C(=O)Nc1ccc(C(=O)N2CCc3cc(C(=O)Nc4c(F)cccc4F)sc3-c3ccc(F)cc32)cc1 [Example 55],< 7.30
11,Cc1cnc(N2CC3(CCOCC3)C2)c(C(=O)Nc2ccc(C(=O)N3CCc4c(sc(-c5nc6ccccc6[nH]5)c4F)-c4ccccc43)cc2)c1 [Example 201],> 8.00
12,O=C(Nc1c(F)cccc1F)c1cc2c(s1)-c1ccc(F)cc1N(C(=O)c1ccc(NC(=O)c3cccnc3-c3ccncc3)cc1)CC2 [Example 63],< 7.30
13,Cc1cnc(N2CC3(CCOCC3)C2)c(C(=O)Nc2ccc(C(=O)N3CCc4cc(NC(=O)c5c(F)cccc5C(F)(F)F)sc4-c4ccccc43)cc2)c1 [Example 287],7.30 to 8.00
14,Cc1cnc(N2CC3(CCOCC3)C2)c(C(=O)Nc2ccc(C(=O)N3CCc4c(sc(C(=O)Nc5ccccc5F)c4F)-c4ccccc43)cc2)c1 [Example 205],> 8.00
15,Cc1cnc(N2CC3(CCOCC3)C2)c(C(=O)Nc2ccc(C(=O)N3CCc4c(sc(NC(=O)c5ccccc5F)c4F)-c4ccccc43)cc2)c1 [Example 307],> 8.00
16,Cc1cnc(N2CC3(CCOCC3)C2)c(C(=O)Nc2ccc(C(=O)N3CCc4cc(-c5c[nH]c6c(C)cccc56)sc4-c4ccc(F)cc43)cc2)c1 [Example 177],7.30 to 8.00
17,Cc1cnc(N2CC3(CCOCC3)C2)c(C(=O)Nc2ccc(C(=O)N3CCc4cc(-c5cn(C)nc5N)sc4-c4ccc(F)cc43)cc2)c1 [Example 172],> 8.00
18,O=C(Nc1c(F)cc(F)cc1F)c1cc2c(s1)-c1c(cc(F)c(F)c1F)N(C(=O)c1ccc(NC(=O)c3cccnc3N3CC4(CCOCC4)C3)cc1)CC2 [Example 79],7.30 to 8.00
19,Cc1cnc(N2CC3(CCOCC3)C2)c(C(=O)Nc2ccc(C(=O)N3CCc4cc(NC(=O)c5c(F)cccc5F)sc4-c4ccccc43)cc2)c1 [Example 275],> 8.00
20,Cc1cc(C(=O)Nc2ccc(C(=O)N3CCc4c(sc(C(=O)Nc5ncccc5F)c4F)-c4ccccc43)cc2)c(N2CC3(CCOCC3)C2)nc1C [Example 221],> 8.00
21,Cc1cnc(N2CC3(CCOCC3)C2)c(C(=O)Nc2ccc(C(=O)N3CCc4c(sc(-c5nc6ccc(F)cc6[nH]5)c4F)-c4ccccc43)cc2)c1 [Example 207],> 8.00
22,Cc1ccc(C(=O)Nc2ccc(C(=O)N3CCc4c(sc(NC(=O)c5c(C)cccc5F)c4F)-c4ccccc43)cc2)c(N2CC3(CCOCC3)C2)n1 [Example 308],7.30 to 8.00
23,O=C(Nc1c(F)cccc1F)c1cc2c(s1)-c1cc(C(F)(F)F)ccc1N(C(=O)c1ccc(NC(=O)c3cccnc3N3CC4(CCOCC4)C3)cc1)CC2 [Example 87],7.30 to 8.00
24,Cc1cnc(N2CC3(CCOCC3)C2)c(C(=O)Nc2ccc(C(=O)N3CCc4cc(-c5ccc(F)cn5)sc4-c4ccc(F)cc43)cc2)c1 [Example 163],> 8.00
25,Cc1cnc(N2CC3(CCOCC3)C2)c(C(=O)Nc2ccc(C(=O)N3CCc4c(sc(NC(=O)c5c(F)cccc5F)c4F)-c4ccccc43)cc2)c1 [Example 304],> 8.00
26,Cc1cnc(N2CC3(CCOCC3)C2)c(C(=O)Nc2ccc(C(=O)N3CCc4cc(-c5ccccn5)sc4-c4ccc(F)cc43)cc2)c1 [Example 168],> 8.00
27,Cc1cnc(N2CC3(CCOCC3)C2)c(C(=O)Nc2ccc(C(=O)N3CCc4cc(C(=O)NC5CC(C)(C)OC(C)(C)C5)sc4-c4ccc(F)cc43)cc2)c1 [Example 121],> 8.00
28,Cc1cnc(N2CC3(CCOCC3)C2)c(C(=O)Nc2ccc(C(=O)N3CCc4cc(-c5c[nH]c6ncccc56)sc4-c4ccc(F)cc43)cc2)c1 [Example 173],> 8.00
29,Cc1ccc(C(=O)Nc2ccc(C(=O)N3CCc4c(sc(-c5nc6cccc(F)c6[nH]5)c4F)-c4ccccc43)cc2)c(N2CC3(CCOCC3)C2)n1 [Example 214],> 8.00
30,O=C(Nc1ccc(C(=O)N2CCc3cc(-c4nc5ccccc5[nH]4)sc3-c3ccc(C(F)(F)F)cc32)cc1)c1cccnc1N1CC2(CCOCC2)C1 [Example 86],< 7.30

# Other lines, results leading:
row,pEC50,SMILES
1,> 8.00,Cc1ccc(C(=O)Nc2ccc(C(=O)N3CCc4cc(C(=O)Nc5c(C)cccc5F)oc4-c4ccccc43)cc2)c(N2CC3(CCOCC3)C2)n1 [Example 256]
2,> 8.00,Cc1ccc(C(=O)Nc2ccc(C(=O)N3CCc4cc(C(=O)Nc5c(F)cc(F)cc5F)oc4-c4ccccc43)cc2)c(N2CC3(CCOCC3)C2)n1 [Example 257]
3,> 8.00,O=C(Nc1c(F)cccc1F)c1cc2c(s1)-c1cc(F)c(F)cc1N(C(=O)c1ccc(NC(=O)c3cccnc3N3CC4(CCOCC4)C3)cc1)CC2 [Example 76]
4,7.30 to 8.00,O=C(Nc1c(F)cccc1Cl)c1cc2c(s1)-c1cc(F)c(F)cc1N(C(=O)c1ccc(NC(=O)c3cc(F)cnc3N3CC4(CCOCC4)C3)cc1)CC2 [Example 74]
5,7.30 to 8.00,O=C(Nc1c(F)cccc1F)c1cc2c(s1)-c1cc(F)c(F)cc1N(C(=O)c1ccc(NC(=O)c3cc(F)cnc3N3CC4(CCOCC4)C3)cc1)CC2 [Example 73]
6,> 8.00,O=C(Nc1c(F)cc(F)cc1Cl)c1cc2c(s1)-c1ccc(F)cc1N(C(=O)c1ccc(NC(=O)c3cc(F)cnc3N3CC4(CCOCC4)C3)cc1)CC2 [Example 26]
7,> 8.00,Cc1cnc(N2CC3(CCOCC3)C2)c(C(=O)Nc2ccc(C(=O)N3CCc4cc(C(=O)Nc5c(F)cccc5C(F)(F)F)sc4-c4ccc(F)cc43)cc2)c1 [Example 5]
8,7.30 to 8.00,O=C(Nc1c(F)cccc1F)c1cc2c(s1)-c1c(ccc(F)c1F)N(C(=O)c1ccc(NC(=O)c3cccnc3N3CC4(CCOCC4)C3)cc1)CC2 [Example 69]
9,7.30 to 8.00,O=C(Nc1c(F)cc(F)cc1Cl)c1cc2c(s1)-c1ccc(F)cc1N(C(=O)c1ccc(NC(=O)c3ccc(C(F)(F)F)nc3N3CC4(CCOCC4)C3)cc1)CC2 [Example 23]
10,> 8.00,Cc1cnc(N2CC3(CCOCC3)C2)c(C(=O)Nc2ccc(C(=O)N3CCc4cc(-c5ncccc5F)sc4-c4ccc(F)cc43)cc2)c1 [Example 165]
11,> 8.00,O=C(Nc1c(F)cccc1Cl)c1cc2c(o1)-c1ccc(F)cc1N(C(=O)c1ccc(NC(=O)c3cc4c(nc3N3CC5(CCOCC5)C3)CCC4)cc1)CC2 [Example 240]
12,7.30 to 8.00,O=C(Nc1c(F)cccc1F)c1cc2c(s1)CCN(C(=O)c1ccc(NC(=O)c3cc4c(nc3N3CC5(CCOCC5)C3)CCC4)cc1)c1ccccc1-2 [Example 263]
13,7.30 to 8.00,Cc1ccc(C(=O)Nc2ccc(C(=O)N3CCc4cc(NC(=O)c5c(F)cccc5Cl)sc4-c4ccccc43)cc2)c(N2CC3(CCOCC3)C2)n1 [Example 277]
14,> 8.00,O=C(Nc1ncccc1Cl)c1cc2c(s1)-c1ccc(F)cc1N(C(=O)c1ccc(NC(=O)c3cc4c(nc3N3CC5(CCOCC5)C3)CCC4)cc1)CC2 [Example 140]
15,7.30 to 8.00,O=C(Nc1ccc(C(=O)N2CCc3cc(-c4nc5cccc(F)c5[nH]4)sc3-c3ccc(F)cc32)cc1)c1cccnc1N1CC2(CCOCC2)C1 [Example 40]
